Experimental findings from ChEMBL document CHEMBL5230147, “Click, release, and fluoresce: In-vivo generation of CO with concomitant synthesis of a fluorescent reporter” (Bioorg Med Chem, 2021) are described below.

The nature of data set [1]: Half life in rat at 0.1 mg/kg, IG at pH 1.2 measured for 24 hrs. It is filed as ADME, organism-based. The settings on record: in vivo, po.
A short description of data set [2]: Half life in rat at 0.1 mg/kg, IG at pH 7.4 measured for 24 hrs. Format: ADME, organism-based. The following applies: in vivo, po.
Data set [3] in a line: Half life in C57BL/6 mouse at 100 mg/kg, ip at pH 7.4 measured after 24 hrs. Format: ADME, organism-based. The following applies: in vivo.
The test system of another data set is Mus musculus. Description: Anti-colitis activity against TNBS-induced C57BL/6 mouse model assessed as survival rate at 15 mg/kg, ip. Format: functional.
Data set [4] in a line: Half life in mouse at 15 mg/kg, ip at pH 7.4 measured at 24 to 72 hrs. It is filed as ADME, organism-based. The following applies: in vivo, time 24-72 hrs.

`C#CC(C)(C)NC(=O)C1=C2C(=C(c3ccccc3)C1=O)c1cccc3cccc2c13`: the values for the half-life in data set [1] and in data set [2] were 17.1 min and 24.1 min, respectively.

`C#CCN(C)C(=O)C1=C2C(=C(c3ccccc3)C1=O)c1cccc3cccc2c13` registered a half-life in data set [3] of 1.9 min.

With `C#CCCN(C(=O)C1=C2C(=C(c3ccccc3)C1=O)c1cccc3cccc2c13)C(C)C`, the Activity in the data set with Mus musculus was determined as 75%. This compound also gave a half-life in data set [4] of 72 min.

One may read the half-life as the time in which the quantity being followed falls by half.
